pIC50: −log10 of the molar value. Starred links: 1 amine or outer side, 2 acyl side, 3 side chain; linkers in the order of their positions; H or OH if unused. Positions of bridges follow the written chain, without caps; N, C: chain ends. Non-standard residues stand in square brackets, D forms with d. Residues, ends and D or L forms follow the SMILES beside them. Phe(3-Me) = Cc1cccc(C[C@H](N)C(=O)O)c1; γGlu = O=C(O)[C@H](CCC(=O)[*:2])N[*:1]; 2Nal = N[C@@H](Cc1ccc2ccccc2c1)C(=O)O; Ahp(2) = CCCCC[C@H](N)C(=O)O; NMeNle = CCCC[C@H](NC)C(=O)O; Tle = CC(C)(C)[C@H](N)C(=O)O; NHexGly = CCCCCCNCC(=O)O; Nle = CCCC[C@H](N)C(=O)O; Aun = NCCCCCCCCCCC(=O)O; AEEA = NCCOCCOCC(=O)O

The test has as its target T1, mouse VISTA (mVISTA) (Mus musculus, UniProt Q9D659).
T1 construct: expressed in transfected cells; host or cells: Human embryonic kidney 293T cells
T1 sequence (Q9D659 33-308): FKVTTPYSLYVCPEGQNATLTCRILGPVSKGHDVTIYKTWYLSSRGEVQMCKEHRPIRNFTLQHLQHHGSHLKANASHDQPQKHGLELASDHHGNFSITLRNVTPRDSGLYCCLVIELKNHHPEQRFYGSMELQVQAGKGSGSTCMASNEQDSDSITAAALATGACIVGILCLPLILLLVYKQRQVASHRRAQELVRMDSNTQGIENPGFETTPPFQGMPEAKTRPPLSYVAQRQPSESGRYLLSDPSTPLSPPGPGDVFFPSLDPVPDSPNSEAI
Kind of test: Cell-Based Binding High-Content Assay For mVISTA (HC CBA mVISTA). The settings on record: read-out: HC CBA mVISTA IC50. In a few lines:
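Read-out: Alexa 647–streptavidin signal imaged on fixed, Hoechst-stained mVISTA-293T cells, with IC50 taken from a four-parameter logistic curve. Compounds competed with 2 nM biotinylated peptide for 30 min at room temperature, tested under both no-wash and wash (1 h compound, media exchange, 1 h) formats.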
As usually defined, the pIC50 is the negative decadic logarithm of the IC50, by convention in mol/L. As for `CCCCCCN1CC(=O)N[C@@H](Cc2ccc(O)cc2)C(=O)N[C@@H](CCCC)C(=O)N[C@@H](CC(N)=O)C(=O)N[C@@H](CCCNC(=N)N)C(=O)N(C)[C@@H](CCCC)C(=O)N[C@@H](CCCCC)C(=O)N2CCC[C@H]2C(=O)N[C@@H](C(C)C)C(=O)N[C@@H](CC(=O)O)C(=O)N[C@H](C(=O)NCCOCCOCC(=O)N[C@@H](CCC(=O)NCCOCCOCC(=O)NCCCCCCCCCCC(=O)O)C(=O)O)CSCC(=O)N[C@@H](Cc2ccc3ccccc3c2)C(=O)N[C@@H](Cc2c[nH]c3ccccc23)C(=O)N[C@@H](CC(=O)O)C1=O` [compound 2214] ({CH2CO}-[2Nal]WD[NHexGly]Y[Nle]NR[NMeNle][Ahp(2)]PVDC[AEEA][γGlu][AEEA][Aun]-OH; thioether N-14), the pIC50 was 7.49. As for `CCCCCCN1CC(=O)N[C@@H](Cc2ccc(O)cc2)C(=O)N[C@@H](CCCCC)C(=O)NCC(=O)N[C@@H](CCCNC(=N)N)C(=O)N[C@@H](CC(C)C)C(=O)N[C@@H](CCCCC)C(=O)N2CCC[C@H]2C(=O)N[C@@H](C(C)C)C(=O)N[C@@H](CO)C(=O)N[C@H](C(=O)NCCOCCOCC(=O)N[C@@H](CCC(=O)NCCOCCOCC(=O)NCCCCCCCCCCC(=O)O)C(=O)O)CSCC(=O)N[C@@H](Cc2ccccc2)C(=O)N[C@@H](Cc2ccc(O)cc2)C(=O)N[C@@H](CC(=O)O)C1=O` [compound 2215] ({CH2CO}-FYD[NHexGly]Y[Ahp(2)]GRL[Ahp(2)]PVSC[AEEA][γGlu][AEEA][Aun]-OH; thioether N-14), the pIC50 is 7.55. The result for `CCCCCCN1CC(=O)N[C@@H](Cc2ccc(O)cc2)C(=O)N[C@@H](CCCC)C(=O)NCC(=O)N[C@@H](CCCNC(=N)N)C(=O)N[C@@H](CC(C)C)C(=O)N[C@@H](CCCCC)C(=O)N2CCC[C@H]2C(=O)N[C@@H](C(C)C)C(=O)N[C@@H](CC(=O)O)C(=O)N[C@H](C(=O)NCCOCCOCC(=O)N[C@@H](CCC(=O)NCCOCCOCC(=O)NCCCCCCCCCCC(=O)O)C(=O)O)CSCC(=O)N[C@@H](Cc2cccc(C)c2)C(=O)N[C@@H](Cc2ccc(O)cc2)C(=O)N[C@@H](CC(=O)O)C1=O` [compound 2216] ({CH2CO}-[Phe(3-Me)]YD[NHexGly]Y[Nle]GRL[Ahp(2)]PVDC[AEEA][γGlu][AEEA][Aun]-OH; thioether N-14) reads 7.61; that for `CCCCCCN1CC(=O)N[C@@H](Cc2ccc(O)cc2)C(=O)N[C@@H](CC(C)C)C(=O)N[C@@H](CC(N)=O)C(=O)N[C@@H](CCCNC(=N)N)C(=O)N[C@@H](CC(C)C)C(=O)N[C@@H](CCCCC)C(=O)N2CCC[C@H]2C(=O)N[C@@H](C(C)C)C(=O)N[C@@H](C(C)C)C(=O)N[C@H](C(=O)NCCOCCOCC(=O)N[C@@H](CCC(=O)NCCOCCOCC(=O)NCCCCCCCCCCC(=O)O)C(=O)O)CSCC(=O)N[C@@H](Cc2ccccc2)C(=O)N[C@@H](Cc2ccc(O)cc2)C(=O)N[C@@H](CC(=O)O)C1=O` [compound 2217] ({CH2CO}-FYD[NHexGly]YLNRL[Ahp(2)]PVVC[AEEA][γGlu][AEEA][Aun]-OH; thioether N-14), 7.88; that for `CCCCCCN1CC(=O)N[C@@H](Cc2ccc(O)cc2)C(=O)N[C@@H](CCCC)C(=O)N[C@@H](CC(N)=O)C(=O)N[C@@H](CCCNC(=N)N)C(=O)N(C)[C@@H](CCCC)C(=O)N[C@@H](CCCCC)C(=O)N2CCC[C@H]2C(=O)N[C@@H](C(C)C)C(=O)N[C@@H](CC(=O)O)C(=O)N[C@H](C(=O)NCCOCCOCC(=O)N[C@@H](CCC(=O)NCCOCCOCC(=O)NCCCCCCCCCCC(=O)O)C(=O)O)CSCC(=O)N[C@@H](Cc2ccccc2)C(=O)N[C@@H](Cc2c[nH]c3ccccc23)C(=O)N[C@@H](CC(=O)O)C1=O` [compound 2218] ({CH2CO}-FWD[NHexGly]Y[Nle]NR[NMeNle][Ahp(2)]PVDC[AEEA][γGlu][AEEA][Aun]-OH; thioether N-14), 7.94. The result for `CCCCCCN1CC(=O)N[C@@H](Cc2ccc(O)cc2)C(=O)N[C@@H](C(C)C)C(=O)NCC(=O)N[C@@H](CCCNC(=N)N)C(=O)N[C@@H](CC(C)C)C(=O)N[C@@H](CCCCC)C(=O)N2CCC[C@H]2C(=O)N[C@@H](C(C)C)C(=O)N[C@@H](CC(=O)O)C(=O)N[C@H](C(=O)NCCOCCOCC(=O)N[C@@H](CCC(=O)NCCOCCOCC(=O)NCCCCCCCCCCC(=O)O)C(=O)O)CSCC(=O)N[C@@H](Cc2ccc3ccccc3c2)C(=O)N[C@@H](Cc2ccc(O)cc2)C(=O)N[C@@H](CC(=O)O)C1=O` [compound 2219] ({CH2CO}-[2Nal]YD[NHexGly]YVGRL[Ahp(2)]PVDC[AEEA][γGlu][AEEA][Aun]-OH; thioether N-14) reads 7.62. For `CCCCCCN1CC(=O)N[C@@H](Cc2ccc(O)cc2)C(=O)N[C@@H](CC(C)C)C(=O)N[C@@H](CC(N)=O)C(=O)N[C@@H](CCCNC(=N)N)C(=O)N[C@@H](CC(C)C)C(=O)N[C@@H](CCCCC)C(=O)N2CCC[C@H]2C(=O)N[C@@H](C(C)C)C(=O)N[C@@H](C(C)C)C(=O)N[C@H](C(=O)NCCOCCOCC(=O)N[C@@H](CCC(=O)NCCOCCOCC(=O)NCCCCCCCCCCC(=O)O)C(=O)O)CSCC(=O)N[C@@H](Cc2ccccc2)C(=O)N[C@@H](Cc2cccc(C)c2)C(=O)N[C@@H](CC(=O)O)C1=O` [compound 2221] ({CH2CO}-F[Phe(3-Me)]D[NHexGly]YLNRL[Ahp(2)]PVVC[AEEA][γGlu][AEEA][Aun]-OH; thioether N-14), the pIC50 is 7.47.

Turning to `CCCCCCN1CC(=O)N[C@@H](Cc2ccc(O)cc2)C(=O)N[C@@H](CCCC)C(=O)N[C@@H](CC(N)=O)C(=O)N[C@@H](CCCNC(=N)N)C(=O)N[C@@H](CC(C)C)C(=O)N[C@@H](CCCCC)C(=O)N2CCC[C@H]2C(=O)N[C@@H](C(C)C)C(=O)N[C@@H](CC(=O)O)C(=O)N[C@H](C(=O)NCCOCCOCC(=O)N[C@@H](CCC(=O)NCCOCCOCC(=O)NCCCCCCCCCCC(=O)O)C(=O)O)CSCC(=O)N[C@@H](Cc2cccc(C)c2)C(=O)N[C@@H](Cc2c[nH]c3ccccc23)C(=O)N[C@@H](CC(=O)O)C1=O` [compound 2222] ({CH2CO}-[Phe(3-Me)]WD[NHexGly]Y[Nle]NRL[Ahp(2)]PVDC[AEEA][γGlu][AEEA][Aun]-OH; thioether N-14), the pIC50 is 7.54.

Regarding `CCCCCCN1CC(=O)N[C@@H](Cc2ccc(O)cc2)C(=O)N[C@@H](CCCC)C(=O)N[C@@H](CC(N)=O)C(=O)N[C@@H](CCCNC(=N)N)C(=O)N[C@@H](CC(C)C)C(=O)N[C@@H](CCCCC)C(=O)N2CCC[C@H]2C(=O)N[C@@H](C(C)C)C(=O)N[C@@H](CO)C(=O)N[C@H](C(=O)NCCOCCOCC(=O)N[C@@H](CCC(=O)NCCOCCOCC(=O)NCCCCCCCCCCC(=O)O)C(=O)O)CSCC(=O)N[C@@H](Cc2ccc3ccccc3c2)C(=O)N[C@@H](Cc2ccc(O)cc2)C(=O)N[C@@H](CC(=O)O)C1=O` [compound 2223] ({CH2CO}-[2Nal]YD[NHexGly]Y[Nle]NRL[Ahp(2)]PVSC[AEEA][γGlu][AEEA][Aun]-OH; thioether N-14), the pIC50 was 7.91. The result for `CCCCCCN1CC(=O)N[C@@H](Cc2ccc(O)cc2)C(=O)N[C@@H](CCCC)C(=O)N[C@@H](CC(N)=O)C(=O)N[C@@H](CCCNC(=N)N)C(=O)N(C)[C@@H](CCCC)C(=O)N[C@@H](CCCCC)C(=O)N2CCC[C@H]2C(=O)N[C@@H](C(C)(C)C)C(=O)N[C@@H](CO)C(=O)N[C@H](C(=O)NCCOCCOCC(=O)N[C@@H](CCC(=O)NCCOCCOCC(=O)NCCCCCCCCCCC(=O)O)C(=O)O)CSCC(=O)N[C@@H](Cc2ccccc2)C(=O)N[C@@H](Cc2ccc(O)cc2)C(=O)N[C@@H](CC(=O)O)C1=O` [compound 2224] ({CH2CO}-FYD[NHexGly]Y[Nle]NR[NMeNle][Ahp(2)]P[Tle]SC[AEEA][γGlu][AEEA][Aun]-OH; thioether N-14) reads 7.73. The result for `CCCCCCN1CC(=O)N[C@@H](Cc2ccc(O)cc2)C(=O)N[C@@H](CCCC)C(=O)N[C@@H](CC(N)=O)C(=O)N[C@@H](CCCNC(=N)N)C(=O)N(C)[C@@H](CCCC)C(=O)N[C@@H](CCCCC)C(=O)N2CCC[C@H]2C(=O)N[C@@H](C(C)(C)C)C(=O)N[C@@H](CO)C(=O)N[C@H](C(=O)NCCOCCOCC(=O)N[C@@H](CCC(=O)NCCOCCOCC(=O)NCCCCCCCCCCC(=O)O)C(=O)O)CSCC(=O)N[C@@H](Cc2ccccc2)C(=O)N[C@@H](Cc2cccc(C)c2)C(=O)N[C@@H](CC(=O)O)C1=O` [compound 2225] ({CH2CO}-F[Phe(3-Me)]D[NHexGly]Y[Nle]NR[NMeNle][Ahp(2)]P[Tle]SC[AEEA][γGlu][AEEA][Aun]-OH; thioether N-14) reads 7.51; that for `CCCCCCN1CC(=O)N[C@@H](Cc2ccc(O)cc2)C(=O)N[C@@H](CCCC)C(=O)N[C@@H](CC(N)=O)C(=O)N[C@@H](CCCNC(=N)N)C(=O)N(C)[C@@H](CCCC)C(=O)N[C@@H](CCCCC)C(=O)N2CCC[C@H]2C(=O)N[C@@H](C(C)(C)C)C(=O)N[C@@H](CO)C(=O)N[C@H](C(=O)NCCOCCOCC(=O)N[C@@H](CCC(=O)NCCOCCOCC(=O)NCCCCCCCCCCC(=O)O)C(=O)O)CSCC(=O)N[C@@H](Cc2ccccc2)C(=O)N[C@@H](Cc2c[nH]c3ccccc23)C(=O)N[C@@H](CC(=O)O)C1=O` [compound 2226] ({CH2CO}-FWD[NHexGly]Y[Nle]NR[NMeNle][Ahp(2)]P[Tle]SC[AEEA][γGlu][AEEA][Aun]-OH; thioether N-14), 7.61. The result for `CCCCCCN1CC(=O)N[C@@H](Cc2ccc(O)cc2)C(=O)N[C@@H](CCCC)C(=O)N[C@@H](CC(N)=O)C(=O)N[C@@H](CCCNC(=N)N)C(=O)N(C)[C@@H](CCCC)C(=O)N[C@@H](CCCCC)C(=O)N2CCC[C@H]2C(=O)N[C@@H](C(C)(C)C)C(=O)N[C@@H](CO)C(=O)N[C@H](C(=O)NCCOCCOCC(=O)N[C@@H](CCC(=O)NCCOCCOCC(=O)NCCCCCCCCCCC(=O)O)C(=O)O)CSCC(=O)N[C@@H](Cc2ccc3ccccc3c2)C(=O)N[C@@H](Cc2ccc(O)cc2)C(=O)N[C@@H](CC(=O)O)C1=O` [compound 2227] ({CH2CO}-[2Nal]YD[NHexGly]Y[Nle]NR[NMeNle][Ahp(2)]P[Tle]SC[AEEA][γGlu][AEEA][Aun]-OH; thioether N-14) reads 7.38.

Values taken from patent publication US20240218022A1, “ANTI-VISTA MACROCYCLIC PEPTIDES AND COMPOSITIONS” (BRISTOL-MYERS SQUIBB COMPANY, priority 2022, published 2024).
